Source: patent US20080014192A1, “Methods For The Diagnosis And Treatment of Fungal Infections Caused By Microorganisms Producing Glucosylceramide” (priority 2006, published 2008)

Assays:
[1] = test system: fungal cells; details: Ma et al., 2006 and Alvarez et al.; cited from earlier work
[2] = test system: alveolar macrophages; experiment: Alveolar macrophage depletion, count in bronchoalveolar lavage after intranasal liposomes; assay type: in vivo, mouse; details: P<0.05
Protocol: Alveolar macrophage depletion. Liposomes containing clodronate (dichloromethylenediphosphonic acid disodium salt) and empty liposomes used as control, were prepared as described previously (Van Rooijen, 1994). Briefly, 8 mg cholesterol (Avanti Polar Lipids) and 86 mg L-alpha phosphatidylcholine (Avanti Polar Lipids) were dissolved in chloroform, which was then slowly evaporated. The thin, filmy layer was resuspended in 10 ml of PBS or 0.6M clodronate. The mixture was exposed to N2 gas and incubated 2 hours at room temperature with gentle shaking. The mixture was then sonicated and incubated another 2 hours to allow liposome swelling. The solution was centrifuged at 10,000 g for 15 minutes and the liposomes containing clodronate were collected and washed twice with sterile PBS. The liposomes were kept at 4° C. under N2 until use for a maximum of 2 weeks.
(§1) Alveolar macrophage depletion was evaluated by intranasally introducing 60 μl of PBS, empty liposome or liposomes containing clodronate into the mouse and performing bronchoalveolar lavage at 48 hours or 6 days. […] The collected fluid was spun down and alveolar macrophages were counted. […]
Pharmacological depletion of alveolar macrophage. […] After 48 hours or 7 days from the injection, mice were sacrificed, the bronco alveolar lavage (BAL) fluid was collected and viability of alveolar macrophages assessed microscopically.

[3] = test system: Cn WT (C. neoformans var. grubii serotype A H99); experiment: Survival of Tgε26 mice infected intranasally with Cn wild-type; assay type: in vivo, Cryptococcus neoformans; details: Cn WT intranasal, weekly intranasal liposome treatment, no significant change vs controls
Protocol: (§2) Animal studies. Four to six-week-old Tgε26 mice (Wang et al., 1994; Wang et al., 1997), available in our Animal Core Facility, Medical University of South Carolina, Charleston, S.C., were used for this study. Mice were anesthetized with an intraperitoneal injection of 60 μl xylaxine/ketamine mixture containing 5 mg xylazine and 95 mg ketamine per kilogram of body weight. Wild-type and mutant strains of Cn were grown in YPD media for 24 hrs at 30° C. The yeast cells were harvested and washed three times by centrifugation at 3000 rpm for 10 minutes and resuspended in sterile PBS (pH=7.4) at a concentration of 2.5×10^7 cells/ml. Mice were infected intranasally with 20 μl containing 5×10^5 wild-type, Δgcs1 or Δgcs1+GCS1 cells. Mice were fed ad libitum and monitored by twice-daily inspections. Mice that appeared moribund, in pain or with clinical signs of meningoencephalitis were sacrificed using CO2 inhalation followed by cervical dislocation. […] Survival data from the mice experiment were analyzed by Kluskal-Wallis test. […]
as §1

[4] = test system: Cn Δgcs1 mutant; experiment: Survival of Tgε26 mice infected intranasally with Cn Δgcs1; assay type: in vivo, Cryptococcus neoformans
Protocol: as §2, §1

[5] = test system: Cn WT (C. neoformans var. grubii serotype A H99); experiment: Tissue fungal burden (CFU) in Tgε26 mice infected with Cn wild-type; assay type: in vivo, Cryptococcus neoformans
Protocol: (§3) Alveolar macrophage depletion was evaluated by intranasally introducing 60 μl of PBS, empty liposome or liposomes containing clodronate into the mouse and performing bronchoalveolar lavage at 48 hours or 6 days. Bronchoalveolar lavage was done by inserting a stub adapter in the trachea of the mouse and rinsing the alveolar spaces 10 times using 0.5 ml PBS (pH=7.4) for each wash. The collected fluid was spun down and alveolar macrophages were counted. Lavage samples were taken from two mice per time point per group. Experimental groups were divided into five mice each receiving PBS (control group), empty liposome (control group) or liposome encapsulated clodronate administered mice. Two days before infection with yeast, the mice were anesthesized and given 60 μl of PBS, empty liposomes or clodronate-encapsulated liposomes. After 48 hrs, mice were infected with the yeast cells as described above. Mice continued to receive PBS, liposome or clodronate treatment weekly.
(§4) Tissue fungal burden. […] Organs were homogenized in sterile PBS, using the Stomacher 80 (Lab system, Fisher Scientific, Pittsburgh, Pa., USA) for 2 minutes. Serial dilutions were then plated onto YPD plates and colony-forming units were counted and recorded. Statistical analysis was performed using Student's t test, and a p value of less than 0.05 was considered to be significant.
Tissue burden studies. […]

[6] = test system: Cn Δgcs1 mutant; experiment: Tissue fungal burden (CFU) in Tgε26 mice infected with Cn Δgcs1; assay type: in vivo, Cryptococcus neoformans
Protocol: as §3, §4
Tissue burden studies. To address the effect of macrophage depletion on the dissemination of Δgcs1 cells, we performed tissue burden studies of lung, brain, spleen, and kidney upon infection of Cn WT or Δgcs1 strain.

[7] = test system: Cn Δgcs1 mutant; experiment: Lung histopathology of Tgε26 mice infected with Cn Δgcs1; assay type: in vivo, Cryptococcus neoformans; details: day 16 and day 36 of infection; vs empty liposome
Protocol: Histological analyses. Organs were harvested and fixed for 48 hours in 37% formaldehyde, paraffin-embedded, sectioned and stained with movat, mucicarmine, or hematoxylin and eosin.
Histopathology. To gain further insights in the host inflammatory response against Cn Δgcs1 cells in mice in which macrophages have been deleted, we performed a histology analysis on lungs of Tgε26 mice infected with Δgcs1 strain and receiving empty liposome or liposome containing clodronate.

SMILES | extrusion of fungal cells from the intracellular to the extracellular compartment [1] | decrease in number of alveolar macrophages (AMs) ([2]; 48 hours after single intranasal 60 μl dose of liposome suspension, vs PBS- or empty liposome-treated mice) | reduction of AMs ([2]; 7 days after single intranasal 60 μl dose of liposome suspension, vs control-treated mice) | average survival of Cn-infected mice [3] | additional days of survival of infection by the Δgcs1 strain ([4]; Tgε26 mice depleted of AMs) | average survival of Δgcs1-infected mice ([4]; {}) | tissue burden culture in the brain, Cn WT ([5]; Tgε26 mice, FIG. 15B) | tissue colonization of Cn WT cells in all organs analyzed ([5]; lung, brain, spleen, kidney, vs PBS or empty liposome groups) | number of fungal cells in all organs analyzed, Δgcs1 ([6]; lung, brain, kidney, spleen, vs control treated groups, P<0.05) | reduction of lung Δgcs1 fungal load ([6]; macrophage-depleted Tgε26 lungs, P<0.001) | delay in fungal growth in all other organs ([6]; {}) | lung histopathology, Δgcs1 cells [7]
CCN(CC)CCCC(C)Nc1ccnc2cc(Cl)ccc12 (stereo not drawn) [chloroquine] | promote extrusion of fungal cells |  |  |  |  |  |  |  |  |  |  | 
O=P([O-])([O-])C(Cl)(Cl)P(=O)(O)O.[Na+].[Na+] [clodronate, dichloromethylenediphosphonic acid disodium salt] |  | 58% | 52% | 12.8 ± 5.2 days | 18 to 20 days | 76.6 ± 5.3 days | reduction of tissue burden culture in the brain (FIG. 15B) but this difference was not statistically significant | No statistically significant differences | significantly lower number of fungal cells | > 3000 fold | 14 days | few Δgcs1 cells in the lung parenchyma
